According to US20240166665A1, “COVALENT EGFR INHIBITORS AND METHODS OF USE THEREOF” (Dana-Farber Cancer Institute, Inc., priority 2021, published 2024):

Key:
BaF3 EGFR L858R = assay: Ba/F3 cell proliferation (Cell Titer Glo); format: cell-based, murine; conditions: Mus musculus, 72 hours exposure
Source text: (§1) The EGFR mutant L858R Ba/F3 cells have been previously described (Zhou, W., et al. Nature 462, 2009, 1070-1074). The EGFR C797S and C775S mutations were introduced via site directed mutagenesis using the Quick Change Site-Directed Mutagenesis kit into a vector containing EGFR L858R mutation (Stratagene; La Jolla, CA) according to the manufacturers instructions. All constructs were confirmed by DNA sequencing. The constructs were then shuttled into the retroviral vector JP1540 by either using the Cre-recombination system (Agilent Technologies, Santa Clara, CA) or the In-fusion HD Cloning kit (TakaR^a Bio USA, Inc.; Mountain view, CA). Ba/F3 cells were then infected with retrovirus per standard protocols, as described previously (Zhou, et al, Nature 2009). Stable clones were obtained by selection in puromycin (2 μg/ml). All BaF/3 mutant cells were maintained in RPMI 1640 (Cellgro; Mediatech Inc., Herndon, CA) supplemented with 10% FBS, 100 units/mL penicillin, 100 units/mL streptomycin.
(§2) Growth and inhibition of growth was assessed by the Cell Titer Glo assay (Promega, Madison, WI) and was performed according to the manufacturer's instructions. The Cell Titer Glo assay is a luminescence-based method used to determine the number of viable cells based on quantitation of the ATP present, which is directly proportional to the amount of metabolically active cells present. Ba/F3 cells of different EGFR genotypes were exposed to compounds for 72 hours and the number of cells used per experiment was determined empirically as has been previously established (Zhou, et al., Nature 2009). All experimental points were set up in triplicates in 384-well plates. […] The curves were fitted using a non-linear regression model with a sigmoidal dose response.

BaF3 EGFR L858R/C797S = assay: Ba/F3 cell proliferation (Cell Titer Glo); format: cell-based, murine; conditions: Mus musculus, 72 hours exposure
Source text: as §1, §2

EGFR L858R = EGFR L858R (Homo sapiens (Human), UniProt P00533, L858R); assay: HTRF-based EGFR biochemical assay; conditions: 100 μM ATP, 30 min preincubation, enzyme 0.1 nM
Sequence of EGFR L858R (P00533 25-1210 L858R): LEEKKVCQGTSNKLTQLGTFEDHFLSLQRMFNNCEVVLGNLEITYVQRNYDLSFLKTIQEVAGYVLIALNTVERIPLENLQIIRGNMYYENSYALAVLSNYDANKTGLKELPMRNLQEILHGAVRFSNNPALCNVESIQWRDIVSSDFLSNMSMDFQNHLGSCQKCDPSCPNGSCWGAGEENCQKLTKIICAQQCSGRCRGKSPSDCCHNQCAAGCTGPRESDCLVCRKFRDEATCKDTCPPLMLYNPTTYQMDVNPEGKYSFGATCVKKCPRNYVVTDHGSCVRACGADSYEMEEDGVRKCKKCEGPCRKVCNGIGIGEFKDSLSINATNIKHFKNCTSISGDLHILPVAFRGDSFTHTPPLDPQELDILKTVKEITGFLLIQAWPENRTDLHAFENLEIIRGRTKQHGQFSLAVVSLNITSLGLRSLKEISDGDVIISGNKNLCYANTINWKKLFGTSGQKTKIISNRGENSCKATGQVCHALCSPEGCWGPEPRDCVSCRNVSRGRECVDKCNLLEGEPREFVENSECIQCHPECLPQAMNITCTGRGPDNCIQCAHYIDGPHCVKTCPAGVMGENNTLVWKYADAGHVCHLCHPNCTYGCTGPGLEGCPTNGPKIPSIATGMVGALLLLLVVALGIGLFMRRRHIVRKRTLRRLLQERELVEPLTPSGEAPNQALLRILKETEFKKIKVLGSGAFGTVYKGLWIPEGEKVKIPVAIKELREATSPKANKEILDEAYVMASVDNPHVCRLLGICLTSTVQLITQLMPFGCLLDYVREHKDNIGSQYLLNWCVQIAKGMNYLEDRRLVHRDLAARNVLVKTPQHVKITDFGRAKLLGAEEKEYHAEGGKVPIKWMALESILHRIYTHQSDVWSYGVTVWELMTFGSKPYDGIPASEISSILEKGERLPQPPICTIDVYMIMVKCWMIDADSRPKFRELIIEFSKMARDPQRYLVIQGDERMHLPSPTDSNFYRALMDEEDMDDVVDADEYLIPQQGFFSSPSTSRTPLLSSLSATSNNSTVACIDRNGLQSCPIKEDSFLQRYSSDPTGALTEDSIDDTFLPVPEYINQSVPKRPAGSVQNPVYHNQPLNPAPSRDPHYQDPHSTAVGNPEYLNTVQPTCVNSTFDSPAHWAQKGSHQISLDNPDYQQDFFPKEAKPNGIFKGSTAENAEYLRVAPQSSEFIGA
Procedure: (§3) EGFR biochemical activity measurements were carried out using the homogeneous time-resolved fluorescence (HTRF) assay (Cisbio). Inhibitors and DMSO normalizations were first dispensed to empty black low-volume 384-well plates (Corning) with D300 digital liquid dispenser (HP). All reactions were carried out at room temperature and solutions were added to plates with a Multidrop Combi Reagent Dispenser (ThermoFisher). The reaction mixture (10 μL final volume) contained 1 μM tyrosine kinase peptide-biotin substrate and mutant EGFR in a reaction buffer (50 mM HEPES pH 7.0, 5 mM MgCl2, 1 mM MnCl2, 0.01% BSA, 2 mM TCEP, 0.1 mM NaVO4). Enzyme concentrations were adjusted to accommodate varying kinase activities (L858R^0.1 nM, L858R/T790M 0.02 nM). Enzyme reaction solution (2× concentrations, 5 μL) was added to 384-well plates containing compounds and incubated for 30 mins. Enzyme reactions were initiated with the addition of 5 μL of ATP to a final concentration of 100 μM and reacted for 20 mins. Reactions were quenched with the addition of 10 μL of phospho-tyrosine antibody-Europium(III) cryptate (1-to-180 volume ratio) and Streptavidin-XL665 (46.7 nM) in EDTA-containing detection buffer, then incubated at room temperature for 1 hour, and read with a PHERAstar plate reader (excitation=337 nm, emission=620 nm and 665 nm). IC50 values were determined by inhibition curves (11-point curves from 1.0 μM to 0.130 nM or 23-point curves from 1.0 μM to […]) in triplicate with non-linear least squares fit in GraphPad Prism 7.0d.

EGFR L858R/T790M [1] = target: T1, EGFR L858R/T790M (Homo sapiens (Human), UniProt P00533, L858R/T790M); assay: HTRF-based EGFR biochemical assay; conditions: 100 μM ATP, 30 min preincubation, enzyme 0.02 nM
T1 sequence (P00533 25-1210 T790M/L858R): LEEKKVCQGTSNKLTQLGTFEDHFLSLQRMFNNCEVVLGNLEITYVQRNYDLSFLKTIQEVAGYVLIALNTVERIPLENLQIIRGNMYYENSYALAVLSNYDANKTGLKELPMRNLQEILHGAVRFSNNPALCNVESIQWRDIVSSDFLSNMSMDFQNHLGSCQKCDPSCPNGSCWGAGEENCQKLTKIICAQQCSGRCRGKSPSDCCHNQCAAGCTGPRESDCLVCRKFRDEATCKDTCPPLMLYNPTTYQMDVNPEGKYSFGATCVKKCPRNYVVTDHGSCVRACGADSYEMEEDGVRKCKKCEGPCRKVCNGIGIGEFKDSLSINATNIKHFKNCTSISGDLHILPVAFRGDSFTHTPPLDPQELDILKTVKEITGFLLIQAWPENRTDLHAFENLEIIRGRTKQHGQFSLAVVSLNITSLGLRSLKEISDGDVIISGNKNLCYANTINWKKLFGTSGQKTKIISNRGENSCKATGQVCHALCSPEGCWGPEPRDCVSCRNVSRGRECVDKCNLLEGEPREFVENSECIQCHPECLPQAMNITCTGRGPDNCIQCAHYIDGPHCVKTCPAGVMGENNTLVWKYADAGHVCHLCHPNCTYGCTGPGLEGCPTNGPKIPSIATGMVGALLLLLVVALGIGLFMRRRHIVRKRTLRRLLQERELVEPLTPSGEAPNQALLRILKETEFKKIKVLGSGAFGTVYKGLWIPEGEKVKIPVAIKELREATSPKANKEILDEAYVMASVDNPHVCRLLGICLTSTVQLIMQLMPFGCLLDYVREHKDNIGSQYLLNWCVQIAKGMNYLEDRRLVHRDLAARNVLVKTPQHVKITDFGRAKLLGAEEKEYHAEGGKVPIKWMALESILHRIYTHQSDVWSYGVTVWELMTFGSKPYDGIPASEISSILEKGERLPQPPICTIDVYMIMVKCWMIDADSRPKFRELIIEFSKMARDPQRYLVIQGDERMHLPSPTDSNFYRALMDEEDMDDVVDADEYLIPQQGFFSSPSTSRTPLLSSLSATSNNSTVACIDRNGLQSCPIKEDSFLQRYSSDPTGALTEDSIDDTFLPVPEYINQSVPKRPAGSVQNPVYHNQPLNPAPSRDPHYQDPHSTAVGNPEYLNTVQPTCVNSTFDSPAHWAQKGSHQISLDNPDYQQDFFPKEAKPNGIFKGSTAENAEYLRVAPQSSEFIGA
Procedure: as §3

EGFR L858R/T790M [2] = target: T1, EGFR L858R/T790M; assay: MS intact labeling assay; format: binding; conditions: 10-fold molar excess of compound, 2 h at 30° C., LC-MS
Procedure: (§4) EGFR L858R/T790M protein (10 μg) or EGFR L858R/T790M/C797S protein was treated with DMSO or a 10-fold molar excess of compound 001 for 2 h at 30° C. and analyzed by LC-MS using an HPLC (Shimadzu, Marlborough, MA) interfaced to an LTQ ion trap mass spectrometer (ThermoFisher Scientific, San Jose, CA). Protein (5 μg) was injected onto a reversed phase column (5 cm POROS 50R2, Applied Biosystems, Foster City, CA), desalted for 4 min (100% A), and gradient eluted (0-100% B in 1 min; A=0.2 M acetic acid in water; B=0.2 M acetic acid in acetonitrile) into the mass spectrometer (spray voltage=4.8 kV). The mass spectrometer was programmed to acquire profile mass spectra (m/z 300-2000). Raw data was deconvoluted using MagTran version 1.03b2.38.

[3] = target: EGFR L858R/T790M/C797S protein (Homo sapiens (Human), UniProt P00533, C797S/L858R/T790M); assay: MS intact labeling assay; format: binding; conditions: 10-fold molar excess of compound, 2 h at 30° C., LC-MS
Sequence of EGFR L858R/T790M/C797S protein (P00533 25-1210 T790M/C797S/L858R): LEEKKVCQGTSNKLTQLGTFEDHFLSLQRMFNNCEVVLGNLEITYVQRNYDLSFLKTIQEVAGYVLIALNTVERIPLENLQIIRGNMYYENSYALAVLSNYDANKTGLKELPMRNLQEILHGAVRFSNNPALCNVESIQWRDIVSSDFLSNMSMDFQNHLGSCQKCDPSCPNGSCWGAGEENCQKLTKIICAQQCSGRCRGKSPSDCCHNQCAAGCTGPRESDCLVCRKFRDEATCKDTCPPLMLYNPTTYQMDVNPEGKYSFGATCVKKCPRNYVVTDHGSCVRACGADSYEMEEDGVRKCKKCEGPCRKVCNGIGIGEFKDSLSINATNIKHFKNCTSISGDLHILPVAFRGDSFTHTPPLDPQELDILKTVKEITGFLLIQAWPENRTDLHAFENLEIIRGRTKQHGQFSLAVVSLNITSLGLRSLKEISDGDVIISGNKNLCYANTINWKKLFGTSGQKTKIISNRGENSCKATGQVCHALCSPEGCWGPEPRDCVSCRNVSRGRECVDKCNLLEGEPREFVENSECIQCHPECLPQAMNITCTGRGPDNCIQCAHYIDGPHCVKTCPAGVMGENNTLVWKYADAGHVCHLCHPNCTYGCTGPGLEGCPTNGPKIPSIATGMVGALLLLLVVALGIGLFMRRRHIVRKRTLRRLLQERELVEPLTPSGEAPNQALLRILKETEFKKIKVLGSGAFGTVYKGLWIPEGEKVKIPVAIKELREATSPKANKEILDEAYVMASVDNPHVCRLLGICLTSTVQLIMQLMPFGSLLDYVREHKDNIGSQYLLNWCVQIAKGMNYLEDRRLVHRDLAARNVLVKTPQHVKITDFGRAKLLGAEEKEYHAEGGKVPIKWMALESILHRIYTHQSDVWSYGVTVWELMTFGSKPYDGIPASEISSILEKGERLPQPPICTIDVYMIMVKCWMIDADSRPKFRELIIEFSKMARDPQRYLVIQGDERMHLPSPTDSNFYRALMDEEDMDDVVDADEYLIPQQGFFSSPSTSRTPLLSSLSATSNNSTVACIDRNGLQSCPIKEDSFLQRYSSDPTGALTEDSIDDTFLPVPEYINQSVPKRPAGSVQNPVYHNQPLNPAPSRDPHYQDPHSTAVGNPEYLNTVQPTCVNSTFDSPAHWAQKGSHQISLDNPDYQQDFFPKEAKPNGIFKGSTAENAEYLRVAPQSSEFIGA
Procedure: as §4

[4] = tested on: NSCLC that have developed resistance to gefitinib or erlotinib; conditions: patients with NSCLC resistant to gefitinib or erlotinib; cited from earlier work

| IC50 (BaF3 EGFR L858R) | IC50 (BaF3 EGFR L858R/C797S) | IC50 (EGFR L858R) | IC50 (EGFR L858R/T790M [1]) | Percent Labeling (EGFR L858R/T790M [2]) | Percent Labeling [3] | SMILES | RR (response rate) [4] |
| --- | --- | --- | --- | --- | --- | --- | --- |
| 2.9 µM | 1.46 µM | > 0.1 µM | > 0.1 µM | 80% | 80% | C=CC(=O)Nc1cc2cc(c1)-c1cnn(C)c1OCCC[C@@H](C)Cn1c(nc3ccc(Br)cc31)NC2=O [Compound 001] |  |
| 4.42 µM | 3.58 µM | > 0.1 µM | > 0.1 µM |  |  | C=CC(=O)Nc1cc2sc1-c1cnn(C)c1OCCC[C@@H](C)Cn1c(nc3ccc(Br)cc31)NC2=O [Compound 002] |  |
| 4.43 µM | 4.03 µM |  |  |  |  | C=CC(=O)Nc1cc2sc1-c1cnccc1OCCC[C@@H](C)Cn1c(nc3ccc(Br)cc31)NC2=O [Compound 003] |  |
|  |  |  |  |  |  | CN(C)C/C=C/C(=O)Nc1cc2c(Nc3ccc(F)c(Cl)c3)ncnc2cc1O[C@H]1CCOC1 [afatinib] | less than 10% |
